Source: patent publication US20230149358A1, “COMBINATION CANCER THERAPY WITH PENTAAZA MACROCYCLIC RING COMPLEX AND HORMONE THERAPY AGENT” (Galera Labs, LLC, priority 2020, published 2023)

Key:
[1] = test system: T47D-MnSOD^K68Q cells; experiment: Clonogenic cell survival, T47D cells expressing MnSOD^K68Q; assay type: cell-based, human; conditions: 1 μM hydroxy-Tam
Experimental: FIGS. 14a-14g are images and plots that illustrate that loss of SIRT3-induced MnSOD-K68 deacetylation leads to hydroxy-Tam resistance in human breast cancer cells. With respect to FIG. 14a, T47D-MnSOD^WT, T47D-MnSOD^K68R, and T47D-MnSOD^K68D permanent cell lines were selected for hydroxy-Tam resistance in 1 μM for 3 months, and clonogenic cell survival experiments were completed. With respect to FIG. 14b, T47D-shCtrl and T47D-shSIRT3 permanent cell lines were exposed to 1 μM 4-hydroxy-Tam For 24 h (HT), and clonogenic cell survival experiments were done. With respect to FIG. 14c, T47D and T47D-HTR cells, with and without exposure to 1 μM 4-hydroxy-Tam for 24 h (HT), were measured for cytotoxicity by clonogenic survival experiments. […] The cell lysates were analyzed by immunoblotting with anti-MnSOD-K122-Ac (validated as a SIRT3 deacetylation target in Tao et al., 2010, Cancer Cell), anti-MnSOD, anti-OSCP-K139-Ac (validated as a SIRT3 deacetylation target in Tao et al., 2010, Cancer Cell), anti-OSCP, anti-IDH2K413-Ac (validated as a SIRT3 deacetylation target in Someya et al., 2010, Cancer Cell), anti-IDH2, and anti-actin. […]
Clonogenic cell survival assay. For the clonogenic survival analysis, exponentially growing cells were replated using appropriate dilutions, and clonogenic survival was evaluated after 14 days in regular growth medium. […]

[2] = test system: MCF7-MnSOD^K68Q cells; experiment: Clonogenic cell survival, MCF7-MnSOD^K68Q cells; assay type: cell-based, human
Experimental: FIGS. 25a-25b show clonogenic cell survival studies in MCF7-MnSOD^K68Q cells exposed to either: Fulv at 100 nM (in FIG. 25a); or Palb at 0.5 μM (in FIG. 25b) using standard methods. […] Error bars are ±1 SEM. Experiments in triplicate. *** p<0.001.
Clonogenic cell survival assay. For the clonogenic survival analysis, exponentially growing cells were replated using appropriate dilutions, and clonogenic survival was evaluated after 14 days in regular growth medium. Cells were stained with crystal violet, and colonies of >50 cells were counted and utilized to calculate clonogenic survival^46.
To evaluate clonogenic cell survival by testing cell growth at low density, 500 exponentially growing cells were plated in triplicate in 6-well plates using serial dilution, and the growth of the cells was examined throughout 14 days in regular growth medium. Cells were fixed with 70% ethanol for 5 minutes and then stained with 0.5% crystal violet (in 25% methanol) for 20 minutes. Photos of stained plates were taken, and colonies of more than 50 cells were counted and used to calculate clonogenic survival.

[3] = test system: MCF7 cells overexpressing MnSOD^K68Q; experiment: MTT assay, MCF7 cells overexpressing MnSOD^K68Q; assay type: cell-based, human; conditions: 48 hours
Experimental: In FIGS. 28a-28b, cell lysates of 250 nM, 500 nM, 1 μM cisplatin-resistant and […], 1 nM and 2 nM doxorubicin-resistant MCF7 cells (cultured in drug-containing media for 3 months) were collected and immunoblotted for MnSOD-K68-Ac, MnSOD, actin and tubulin. In FIG. […] After 48 hours, MTT assay is conducted to determine the cell viability after chemotherapy drug treatment.
Cell proliferation was measured using MTT proliferation assay kit (ab211091). 10,000 exponentially growing cells were plated in regular growth medium per well into 96-well plates in triplicate. Cells were treated with specified drugs after overnight and incubated for 48 hours. The treatment media was then discarded and a mixture of 50 μl MTT reagent and 50 μl serum-free media was added into each well and incubated for 3 hours at 37° C. 150 μl of MTT solvent was then added, and the plate was shaken for 15 minutes avoiding light. The absorbance was read at OD=590 nm and used to evaluate cell proliferation.

[4] = test system: LNCaP-MnSOD^K68Q xenografts; experiment: LNCaP-MnSOD^K68Q hindlimb xenograft growth in nude mice; assay type: in vivo; conditions: male nude mice; GC4419 10 mg/kg once per week, ENZ 25 mg/kg/day; 46 days
Experimental: In FIG. 21(a), clonogenic cell survival experiments were performed in LNCaP-ENZR (left two bars) and LNCaP-MnSOD^K68Q (right two bars) treated with ENZ, with or without GC4419 (20 μM) for 5 days. […] Tumor volumes were measured three times a week for 46 days. For each group n=10. Error bars ±1 SEM. All experiments done in triplicate. **p<0.01.
Thus, it was surmised that restoring SOD activity, using the pentaaza macrocyclic ring complex GC4419, an agent that chemically detoxifies superoxide, would reverse/convert the ENZR to a sensitive phenotype. […] The dose and pharmacokinetics for GC4419 is based on data for murine models^92-93.

[5] = test system: adult mice; conditions: lethal total body irradiation of adult mice; cited from earlier work
[6] = test system: rat; conditions: rat model of inflammation; cited from earlier work
[7] = test system: colon of rats; conditions: experimental model of colitis; cited from earlier work
[8] = test system: hamster; conditions: acute radiation-induced oral mucositis; cited from earlier work
[9] = test system: rat; conditions: rat model of collagen-induced arthritis; cited from earlier work

4-hydroxytamoxifen [hydroxy-Tam]
cytotoxicity (clonogenic survival), versus cells expressing MnSOD WT or K68R [1]: exhibited significant resistance to the cytotoxicity | cytotoxicity (clonogenic survival), versus cells expressing MnSOD WT or K68R ([2]; MCF7 cells expressing MnSOD^K68Q, 1 μM hydroxy-Tam for 5 days): exhibited significant resistance to the cytotoxicity

[NH2][Pt]([NH2])([Cl])[Cl] [CDDP, cisplatin]
cell viability (MTT), resistance ([3]; CDDP 1 μM): exhibited higher resistance

COc1cccc2c1C(=O)c1c(O)c3c(c(O)c1C2=O)C[C@@](O)(C(=O)CO)C[C@@H]3O[C@H]1C[C@H](N)[C@H](O)[C@H](C)O1 [DXR, doxorubicin]
cell viability (MTT), resistance ([3]; DXR 2 nM): exhibited higher resistance

CNC(=O)c1ccc(N2C(=S)N(c3ccc(C#N)c(C(F)(F)F)c3)C(=O)C2(C)C)cc1F [ENZ, enzalutamide, reference compound]
xenograft growth (tumor volume) [4]: exhibited similar growth characteristics as the control LNCaP cells

C[C@]12CC[C@@H]3c4ccc(O)cc4C[C@@H](CCCCCCCCC[S+]([O-])CCCC(F)(F)C(F)(F)F)[C@H]3[C@@H]1CC[C@@H]2O (some centres unmarked) [Fulv, Fulvestrant]
clonogenic cell survival, resistance versus MCF7-MnSOD^WT ([2]; Fulv at 100 nM): exhibited resistance

[Cl-].[Cl-].[Mn+2].c1cc2nc(c1)CN[C@@H]1CCCC[C@H]1NCCN[C@@H]1CCCC[C@H]1NC2 [GC4403]
radiation damage [5]: attenuate the radiation damage | inflammation [6]: inhibit inflammation | injury to the colon [7]: very significantly reduce the injury to the colon | radiation damage [8]: attenuate the radiation damage | joint disease [9]: prevent joint disease
